Measured values reported in patent US20130316985A1, “GPR35 Ligands And Uses Thereof” (CORNING INCORPORATED, priority 2012, published 2013).
“Also recorded” adds a separate entry of the source. Like-named read-outs stand apart in the source and are kept apart here.

What was measured:
GPR35 [1] = target: T1, GPR35 (Homo sapiens, UniProt Q9HC97); experiment: Tango β-arrestin translocation gene reporter assay in U2OS-GPR35-bla cells; assay type: cell-based; design: TEV protease site (C); Gal4-VP16 transcription factor (C); conditions: for EC50: read-out: Potency EC50, Tango; for β-arrestin translocation (Tango) signal (in words): 2,3-DNP up to 1 mM, 3,4-DNP at 1 mM
T1 sequence (Q9HC97 whole entry, the tested form may be a part): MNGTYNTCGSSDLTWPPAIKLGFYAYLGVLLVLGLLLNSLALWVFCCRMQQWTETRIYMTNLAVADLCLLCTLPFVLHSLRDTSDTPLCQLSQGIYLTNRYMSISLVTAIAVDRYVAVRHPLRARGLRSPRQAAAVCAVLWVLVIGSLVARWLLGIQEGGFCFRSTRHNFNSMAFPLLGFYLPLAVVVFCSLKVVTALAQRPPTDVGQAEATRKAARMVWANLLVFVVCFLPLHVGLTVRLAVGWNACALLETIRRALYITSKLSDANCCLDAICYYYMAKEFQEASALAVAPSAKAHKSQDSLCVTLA

GPR35 [2] = target: T1, GPR35; experiment: DMR agonism assay in native HT-29 cells (Epic optical biosensor); conditions: for DMR signal in HT-29 cells (in words): agonism mode
GPR35 [3] = target: T1, GPR35
GPR35 [4] = target: T1, GPR35; conditions: U2OS-GPR35-bla
Source text: Tango™ GPR35-bla U2OS cells was used. This cell line stably expresses two fusion proteins: human GPR35 linked to a TEV protease site and a Gal4-VP16 transcription factor, and 13-arrestin/TEV protease fusion protein. The cell line also stably expresses the β-lactamase reporter gene under the control of a UAS response element. The activation of GPR35 by agonists leads to the recruitment of 13-arrestin/TEV protease fusion proteins to the activated GPR35. As a result, the protease cleaves the Gal4-VP16 transcription factor from the receptor, which then translocates to the nucleus and activates the expression of beta-lactamase. […] After overnight culture, the cells were stimulated with ligands for 5 hrs in a humidified 37° C./5% CO2, and then loaded with the cell permeable LiveBLAzer™ FRET B/G substrate. After the two hour incubation the coumarin:fluorescein ratio was measured using Tecan Safire II microplate reader (Männedorf, Switzerland). In the absence of beta-lactamase expression (i.e., no GPR35 activation), cells generate green fluorescence. In the presence of beta-lactamase expression upon receptor activation, the substrate is cleaved and the cells generate blue fluorescence. The coumarin:fluorescein ratio was used as a normalized reporter response.
The U2OS-GPR35-bla cells were pretreated with ML145 for 10 min, followed by stimulation with GPR35 agonists at a fixed concentration (indicated in the legend of FIG. 5). The data represents mean±s.d. from two independent measurements, each in duplicate (n=2).

GPR35 [5] = target: T1, GPR35; experiment: cell-based
GPR35 [6] = target: T1, GPR35; remark: listed apart in the source
[7] = U2OS-GPR35-bla cells, β-arrestin translocation, mean ± s.d.
[8] = HT-29, ML-145 at different doses 10 min before agonist at fixed dose
[9] = U2OS-GPR35-bla, zaprinast maximal response in same plate = 100%, read-out: efficacy (Tango, normalized to maximal response of zaprinast)
[10] = maximal response normalized to the zaprinast maximal response, read-out: Efficacy Tango
[11] = maximal response normalized to the zaprinast maximal response
[12] = maximal DMR response in HT-29 (2,5-DNP: amplitude at 50 min)

O=C(O)c1cc(/N=N/c2ccc(O)c(C(=O)O)c2)ccc1O (single isomer, unassigned) [olsalazine]
EC50 (GPR35 [1]; [7]): 1.26 µM
agonist type compared to zaprinast, based on maximal responses in Tango assays (GPR35 [1]; U2OS-GPR35-bla, listed as olasalazine): full agonists
EC50 (GPR35 [2]): 0.0218 µM

O=[N+]([O-])c1ccc(O)c([N+](=O)[O-])c1 [2,4-DNP, 2,4-dinitrophenol]
Emax (GPR35 [1]; read-out: Efficacy Tango): 28 ± 1%
EC50 (GPR35 [1]): 272 µM
Emax (GPR35 [1]; read-out: efficacy (Tango, normalized to maximal response of zaprinast)): 28%
inhibition of the agonist-induced DMR by ML-145 (in words) (GPR35 [3]): partial inhibition; also recorded: partially inhibited
Efficacy DMR (GPR35 [2]): 249 ± 17 pm

O=[N+]([O-])c1cc(O)c(O)c([N+](=O)[O-])c1 [3,5-dinitrocatechol]
EC50 (GPR35 [1]): 123 µM

COc1cccc(O)c1O [3-methoxycatechol]
β-arrestin translocation (Tango) signal (in words) (GPR35 [1]; U2OS-GPR35-bla): trigger Tango signal
inhibition of the agonist-induced DMR by ML-145 (in words) (GPR35 [3]; [8]): can be blocked by ML-145
DMR signal in HT-29 cells (in words) (GPR35 [2]): active
block of the agonist-induced Tango signal by ML-145 (in words) (GPR35 [4]): can be blocked by ML-15

O=C(O)c1cc(/N=N/c2ccc(O)c(C(=O)O)c2)ccc1O [Bi-ASA, (E)-(5,5-diazene-1,2-diyl)bis(2-hydroxybenzoic acid)]
agonist type compared to zaprinast, based on maximal responses in Tango assays (GPR35 [1]; U2OS-GPR35-bla): strong partial agonist
EC50 (GPR35 [1]; [7]): 1.7 µM
EC50 (GPR35 [2]): 0.00209 µM

Nc1ccc(O)c(C(=O)O)c1 [Compound 5-ASA, 5-aminosalicylic acid]
agonist type compared to zaprinast, based on maximal responses in Tango assays (GPR35 [1]; U2OS-GPR35-bla): weak partial agonist
EC50 (GPR35 [1]; [7]): 545 µM
EC50 (GPR35 [5]): 14.7 µM

CCN(CC)C(=O)/C(C#N)=C/c1cc(O)c(O)c([N+](=O)[O-])c1 [Entacapone]
Emax (GPR35 [1]; [9]): 6%
Emax (GPR35 [1]; [10]): 6 ± 1%

O=C(c1cc(O)c(O)c([N+](=O)[O-])c1)c1ccccc1F [Ro41-0960]
EC50 (GPR35 [1]; [7]): 54.4 µM
efficacy (Tango, normalized to maximal response of zaprinast) (GPR35 [1]; U2OS-GPR35-bla, zaprinast maximal response in same plate = 100%): 13%
Efficacy Tango (GPR35 [1]; [11]): 13 ± 1 % zaprinast
inhibition of the agonist-induced DMR by ML-145 (in words) (GPR35 [3]; [8]): partially inhibited
Efficacy DMR (GPR35 [2]; [12]): 257 ± 16 pm
EC50 (GPR35 [6]): 8.66 µM

Cc1ccc(C(=O)c2cc(O)c(O)c([N+](=O)[O-])c2)cc1 [Tolcapone, 3,4-dihydroxy-4′-methyl-5-nitrobenzophenone]
EC50 (GPR35 [1]; [7]): 49.2 µM
Emax (GPR35 [1]; [9]): 25%
Emax (GPR35 [1]; [10]): 25 ± 2%
inhibition of the agonist-induced DMR by ML-145 (in words) (GPR35 [3]; [8]): partially inhibited
inhibition of the agonist-induced DMR by ML-145 (in words) (GPR35 [3]; HT-29, ML-145 at different doses 10 min before agonist at fixed dose, listed as tolcapone): partial inhibition
DMR signal in HT-29 cells (in words) (GPR35 [2]): positive DMR with an early peak followed by a small decay to another elevated plateau
Efficacy DMR (GPR35 [2]; [12]): 400 ± 33 pm
EC50 (GPR35 [6]): 7.44 µM

CCCOc1ccccc1-c1nc(=O)c2[nH]nnc2[nH]1 [Zaprinast]
Emax (GPR35 [1]; [9]): 100%
Efficacy Tango (GPR35 [1]; [11]): 100 ± 9 % zaprinast
Efficacy DMR (GPR35 [2]; [12]): 254 ± 14 pm

O=C(O)CCNC(=O)c1ccc(/N=N/c2ccc(O)c(C(=O)O)c2)cc1 [balsalazide]
agonist type compared to zaprinast, based on maximal responses in Tango assays (GPR35 [1]; U2OS-GPR35-bla): full agonists
EC50 (GPR35 [1]; [7]): 46.2 µM
EC50 (GPR35 [5]): 2.59 µM

CCCCCCCCOC(=O)c1cc(O)c(O)c(O)c1 [octyl gallate]
β-arrestin translocation (Tango) signal (in words) (GPR35 [1]; U2OS-GPR35-bla): trigger Tango signal
inhibition of the agonist-induced DMR by ML-145 (in words) (GPR35 [3]; [8]): can be blocked by ML-145
DMR signal in HT-29 cells (in words) (GPR35 [2]): active
block of the agonist-induced Tango signal by ML-145 (in words) (GPR35 [4]): can be blocked by ML-15

CCCOC(=O)c1cc(O)c(O)c(O)c1 [propyl gallate]
β-arrestin translocation (Tango) signal (in words) (GPR35 [1]; U2OS-GPR35-bla): trigger Tango signal
inhibition of the agonist-induced DMR by ML-145 (in words) (GPR35 [3]; [8]): can be blocked by ML-145
DMR signal in HT-29 cells (in words) (GPR35 [2]): active
block of the agonist-induced Tango signal by ML-145 (in words) (GPR35 [4]): can be blocked by ML-15

Oc1cccc(O)c1O [pyrogallol]
β-arrestin translocation (Tango) signal (in words) (GPR35 [1]; U2OS-GPR35-bla): trigger Tango signal
inhibition of the agonist-induced DMR by ML-145 (in words) (GPR35 [3]; [8]): can be blocked by ML-145
DMR signal in HT-29 cells (in words) (GPR35 [2]): active
block of the agonist-induced Tango signal by ML-145 (in words) (GPR35 [4]): can be blocked by ML-15

O=C(O)c1cc(/N=N/c2ccc(S(=O)(=O)Nc3ccccn3)cc2)ccc1O [sulfasalazine]
agonist type compared to zaprinast, based on maximal responses in Tango assays (GPR35 [1]; U2OS-GPR35-bla): partial agonist
EC50 (GPR35 [1]; [7]): 31.3 µM
EC50 (GPR35 [5]): 2.99 µM
